Results as given in article PMC5159558 (Nucleic Acids Research, 2016).

Tests used:
RET1ΔNC = biological target: T1, RET1ΔNC (Trypanosoma brucei, UniProt Q8WQX5); test: X-ray crystal structure, […] Å; assay type: binding; details: 0.5 mM UMPnPP, 1 mM MgCl2; active site; non-hydrolysable UTP analogue
T1 sequence (Q8WQX5 189-699): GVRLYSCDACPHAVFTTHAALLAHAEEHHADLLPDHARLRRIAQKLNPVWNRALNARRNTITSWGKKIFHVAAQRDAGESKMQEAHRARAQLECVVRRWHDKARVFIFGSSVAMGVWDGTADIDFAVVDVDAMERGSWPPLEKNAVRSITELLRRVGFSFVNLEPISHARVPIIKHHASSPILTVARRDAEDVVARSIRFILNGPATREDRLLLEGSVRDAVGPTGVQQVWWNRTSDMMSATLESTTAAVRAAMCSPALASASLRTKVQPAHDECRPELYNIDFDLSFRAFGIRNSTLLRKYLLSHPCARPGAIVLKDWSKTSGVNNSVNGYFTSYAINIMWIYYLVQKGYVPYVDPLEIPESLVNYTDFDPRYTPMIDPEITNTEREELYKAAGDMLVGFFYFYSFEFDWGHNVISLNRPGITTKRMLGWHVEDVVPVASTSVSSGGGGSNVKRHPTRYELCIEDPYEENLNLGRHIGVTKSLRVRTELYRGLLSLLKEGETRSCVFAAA

TUT4 = biological target: T2, TUT4 (Trypanosoma brucei, UniProt Q381M1); test: X-ray crystal structure, […] Å; assay type: binding; details: Mg2+
T2 sequence (Q381M1 1-333): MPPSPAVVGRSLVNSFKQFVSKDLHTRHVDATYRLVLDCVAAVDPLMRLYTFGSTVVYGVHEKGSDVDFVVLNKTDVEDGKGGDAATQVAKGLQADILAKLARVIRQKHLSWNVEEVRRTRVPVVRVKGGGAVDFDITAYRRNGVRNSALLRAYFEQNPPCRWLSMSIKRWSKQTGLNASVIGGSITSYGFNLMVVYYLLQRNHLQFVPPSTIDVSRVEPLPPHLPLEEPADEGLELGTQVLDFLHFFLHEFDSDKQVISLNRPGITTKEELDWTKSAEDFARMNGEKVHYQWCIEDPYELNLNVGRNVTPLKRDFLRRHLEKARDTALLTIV

**Q.** Which “X-ray crystal structure, 1.8 Å (soaked crystals)” value (RET1ΔNC) does the source give for `O=c1ccn([C@@H]2O[C@H](COP(=O)(O)NP(=O)(O)OP(=O)(O)O)[C@@H](O)[C@H]2O)c(=O)[nH]1` [UMPnPP] here?
**A.** Its value is “Crystals of RET1ΔNC in complex with the UTP analog UMPNPP were obtained by soaking”.

**Q.** How did the “X-ray crystal structure, 2.75 Å” value (TUT4; ternary complex with UTP, crystals soaked in 1 mM UpU) turn out when `O=c1ccn([C@@H]2O[C@H](COP(=O)(O)O[C@H]3[C@@H](O)[C@H](n4ccc(=O)[nH]c4=O)O[C@@H]3CO)[C@@H](O)[C@H]2O)c(=O)[nH]1` [UpU] was run?
**A.** The value was “structure of TUT4 from T. brucei with bound UTP and RNA-mimicking dinucleotide UpU”.

**Q.** How did the “X-ray crystal structure, 2.75 Å” value (TUT4; ternary complex with UpU, co-crystallised with UTP) turn out when `O=c1ccn([C@@H]2O[C@H](COP(=O)(O)OP(=O)(O)OP(=O)(O)O)[C@@H](O)[C@H]2O)c(=O)[nH]1` [UTP] was run?
**A.** The value was “structure of TUT4 from T. brucei with bound UTP and RNA-mimicking dinucleotide UpU”.
